# Measured values published in patent US11389440B2, “PIM kinase inhibitors in combination with autophagy inhibitors for treatment of cancers” (UNIVERSITY OF MARYLAND, BALTIMORE COUNTY, priority 2017, dated 2022).
# Experiments:
# [1] = tested on: Molm16 cells; test: Molm16 cells treated with AZD1208 in combination with autophagy inhibitors (FA values, CI values); assay type: cell-based; set-up: key: fraction of cells affected by treatment (0–1)
# Experimental: (§1) General experimental procedure: 20,000 (EOL1) cells were seeded per well in 96-well plates. […] At 48 hours the MTT metabolism indicative of number of live cells was measured by MTT assay (Promega, Cat: G4000). The resulting values were used to evaluate the Fa (fraction affected) values, which were plugged into the CompuSyn software to calculate the combination indices (CI values) at ED50, ED75, ED90 and ED95 (ED—Effective dose of combination).
# These are values of drug dose and effect (fraction of cells affected by the treatment—FA values). The treatment time is 72 hours.
# (§2) The data presented in this Table 5 is from an experiment in which Molm16 cells were treated with AZD1208 in combination with verteporfin (AZD1208 μM:verteporfin μM=1:200). These are values of drug dose and effect (fraction of cells affected by the treatment—FA values). The treatment time is 72 hours.
# as §2, with “6” for “5”, “Bafilomycin A1” for “verteporfin”, “μM:bafilomycin A1 μM=1:1).” for “μM:verteporfin μM=1:200).”, “48” for “72”
# [2] = tested on: acute myeloid leukemia cells (EOL1); test: MTT assay of EOL1 cells treated with AZD1208 and chloroquine alone and in combination; CI by CompuSyn; assay type: cell-based, human; details: EOL1, 48 hours, scale 0-1
# Experimental: as §1
# The data were analyzed using CompuSyn, an algorithm based on the Chao-Talalay method for detecting drug synergy (3).
# Table 3. […] CI values were determined using CompuSyn at 50%, 75%, 90%, and 95% growth inhibition (GI) Cell growth was measured using standard 3-(4,5-dimethylthiazol-2-yl)-2,5-diphenyltetrazolium bromide (MTT) assays.
compound,measurement,setting,value
"N[C@@H]1CCCN(c2c(/C=C3/SC(=O)NC3=O)cccc2-c2ccccc2)C1 [AZD1208, (5E)-5-[[2-[(3R)-3-aminopiperidin-1-yl]-3-phenylphenyl]methylidene]-1,3-thiazolidine-2,4-dione]","Effect (FA, fraction of cells affected)","[1]; AZD1208 alone 0.00625 μM, Molm16, 48 hours, Table 6",0.1716
same,"Effect (FA, fraction of cells affected)","[1]; AZD1208 alone 0.0125 μM, Molm16, 48 hours, Table 6",0.2259
same,"Effect (FA, fraction of cells affected)","[1]; AZD1208 alone 0.0125 μM, Molm16, 72 hours, Table 4",0.2413
same,"Effect (FA, fraction of cells affected)","[1]; AZD1208 alone 0.025 μM, Molm16, 48 hours, Table 6",0.3615
same,"Effect (FA, fraction of cells affected)","[1]; AZD1208 alone 0.025 μM, Molm16, 72 hours, Table 4",0.354
same,"Effect (FA, fraction of cells affected)","[1]; AZD1208 alone 0.05 μM, Molm16, 72 hours, Table 4",0.5497
same,"Effect (FA, fraction of cells affected)","[1]; AZD1208 alone 0.05 μM, Molm16, 72 hours, Table 5",0.4847
same,"Effect (FA, fraction of cells affected)","[1]; AZD1208 alone 0.1 μM, Molm16, 72 hours, Table 5",0.6474
same,"Effect (FA, fraction affected)",[2]; AZD1208 alone 0.05 μM,0.505
same,"Effect (FA, fraction affected)",[2]; AZD1208 alone 0.1 μM,0.639
same,"Effect (FA, fraction affected)",[2]; AZD1208 alone 0.25 μM,0.386
CO/C1=C\C(C)=C\[C@@H](C)[C@@H](O)[C@@H](C)C/C(C)=C/C=C/[C@H](OC)[C@@H]([C@@H](C)[C@@H](O)[C@H](C)[C@@]2(O)C[C@@H](O)[C@H](C)[C@@H](C(C)C)O2)OC1=O [Bafilomycin A1],"Effect (FA, fraction of cells affected)","[1]; Bafilomycin A1 alone 0.00625 μM, Molm16, 48 hours",0.4744
same,"Effect (FA, fraction of cells affected)","[1]; Bafilomycin A1 alone 0.0125 μM, Molm16, 48 hours",0.7998
same,"Effect (FA, fraction of cells affected)","[1]; Bafilomycin A1 alone 0.025 μM, Molm16, 48 hours",0.8279
CCN(CC)CCCC(C)Nc1ccnc2cc(Cl)ccc12 (stereo not shown) [chloroquine],"Effect (FA, fraction of cells affected)","[1]; chloroquine alone 10 μM, Molm16, 72 hours",0.05357
same,"Effect (FA, fraction of cells affected)","[1]; chloroquine alone 20 μM, Molm16, 72 hours",0.1376
same,"Effect (FA, fraction of cells affected)","[1]; chloroquine alone 40 μM, Molm16, 72 hours",0.4647
Verteporfin,"Effect (FA, fraction of cells affected)","[1]; Verteporfin alone 10 μM, Molm16, 72 hours",0.08412
same,"Effect (FA, fraction of cells affected)","[1]; Verteporfin alone 20 μM, Molm16, 72 hours",0.2143
